# Data as given in article PMC7504360 (International Journal of Molecular Sciences, 2020).
# Square brackets hold non-standard residues; d marks the D form. Peptide text beside a SMILES is read from it.
# How the values were obtained:
# chymotrypsin = experiment: Protease stability assay (antimicrobial activity after protease digestion); assay type: in vitro ADME; conditions: peptide–enzyme 10,000:1, PBS, 6 h at 37 °C preincubation, then E. coli and A. baumannii, 16 h at 37 °C, 600 nm, repeated three times
# Method: (§1) For stability analysis, all Pro-peptides at their MICs were incubated with trypsin and chymotrypsin at the ratio of 10,000:1 (peptide–enzyme) in PBS for 6 h at 37 °C. After incubation, 100 μL of peptide-protease mixture was added to the 100 μL bacterial suspension (E. coli and A. baumannii, 2 × 10^5 CFU/mL) and further incubated for 16 h at 37 °C. Melittin was used as standard peptide, and bacterial suspension without peptide and protease served as control. The experiment was repeated three times, and the extent of bacterial growth was measured at 600 nm using a microplate reader.
# trypsin = experiment: as above; assay type: in vitro ADME; conditions: peptide–enzyme 10,000:1, PBS, 6 h at 37 °C preincubation, then E. coli and A. baumannii, 16 h at 37 °C, 600 nm, repeated three times
# Method: as §1
# all bacterial strains = experiment: Mean MIC over all bacterial strains (GM); assay type: cell-based; conditions: mean MIC of all bacterial strains of Table 2
# Method: Briefly, the microplates were inoculated with two-fold serial dilutions of each peptides in Mueller–Hinton (MH) media and then seeded with log-phase culture of aforementioned bacterial suspensions (2 × 10^5 CFU/mL). The microplates were incubated for 16 h at 37 °C, and absorbance was read at 600 nm using microplate reader SpectraMAX (Molecular Devices, San Jose, CA, USA).
# [1] = test system: LPS-stimulated RAW264.7 cells; experiment: Nitrite (NO) production, Griess assay; assay type: cell-based, mouse; conditions: 25 μM, 1 h pretreatment, LPS 20 ng/mL for 16 h
# Method: (§2) The presence of nitrite in culture media strongly validates the indication of NO production which was assessed by Griess assay. Briefly, RAW264.7 cell (1 × 10^5) were seeded in s 96-well plate in triplicate. Peptides (1, 5, 25, and 50 μM) were pretreated 1 h and then stimulated with 20 ng/mL of LPS purified from E. coli O111:B4 (Sigma-Aldrich, St. Louis, MO, USA) for 16 h. After incubation, equal volumes of culture media and Griess reagent were added and color change was read at 540 nm. The concentration of nitrite content was assessed using a standard curve of sodium nitrite. In addition, release of inflammatory cytokines including TNF-α and IL-6 in the culture media was quantified using an enzyme-linked immunosorbent assays kit (ELISA; R&D Systems, Minneapolis, MN, USA) and the assay was performed according to the kit protocol. The assay was conducted in triplicate, and the concentrations of TNF-α and IL-6 were evaluated by measuring the absorbance at 450 nm using a microplate reader.
# [2] = test system: LPS-stimulated RAW264.7 cells; experiment: TNF-α release, ELISA; assay type: cell-based, mouse; conditions: 25 μM, 1 h pretreatment, LPS 20 ng/mL for 16 h
# Method: as §2
# [3] = test system: LPS-stimulated RAW264.7 cells; experiment: IL-6 release, ELISA; assay type: cell-based, mouse; conditions: 25 μM, 1 h pretreatment, LPS 20 ng/mL for 16 h
# Method: as §2
# E. coli K1-infected mice = experiment: E. coli K1 septic shock mouse model; assay type: in vivo
# Method: For sepsis model, we used E. coli K1 as an infection strain [47], and mice were randomly sorted in to 6 groups (5 mice/group). Control mice received I.P. injection of phosphate buffered saline (PBS, pH = 7.4) whereas Pro10-1 and Pro10-1D were injected with 1 mg/Kg and served as a peptide control. Mice infected with E. coli K1 (6 × 10^6 CFU/mouse, I.P.) served as a sepsis control. For treatment measures, mice were pretreated with 1 mg/kg of the respective peptides for 1 h and then infected with E. coli K1 like the septic mice. After 16 h, mice were euthanized by cervical dislocation under overdose of ether anesthesia. The blood samples, lung, liver, and kidney tissues were excised and processed for biochemical and histological analysis. Briefly, organ lysates of lung, liver, and kidney harvested from ice-cold PBS were evaluated for number of bacterial colonies. Endotoxin levels in the serum contents were quantified according to the kit protocol using Pierce LAL Chromogenic Endotoxin Quantitation Kit (Thermo Fisher Scientific, MA, USA). The levels of AST, ALT, and BUN in serum and the inflammatory cytokine levels in the serum or lung lysates were quantified as described previously.
# Lung tissues of the control and an experimental group of mice fixed by paraformaldehyde (4% v/v) were evaluated for histological changes. Briefly, […] lung tissue sections were deparaffinized in xylene, rehydrated with graded ethanol, and then stained with H&E stain. The stained section was examined for neutrophil infiltration and other morbid changes with a light microscope (Eclipse Ni; Nikon, Tokyo, Japan).
# MAPK and NF-κB = experiment: Immunoblot of MAPK (JNK, ERK) phosphorylation and NF-κB nuclear translocation; assay type: cell-based, mouse; conditions: 20 μM peptide, LPS 50 ng/mL, RAW264.7 cells
# Method: The protein content of all experimental groups of RAW264.7 cells in triplicate were extracted using radio immunoprecipitation buffer (RIPA) containing protease phosphatase inhibitor. The supernatant was collected by centrifugation (12,000× g) at 4 °C for 20 min and stored at −80 °C until further use. Similarly, cytoplasmic and nuclear fractionation was extracted using an NE-PER Nuclear and Cytoplasmic Extraction Reagents kit (ThermoFisher Scientific, MA, USA), according to the manufacturer’s protocol. Protein contents were quantified using a bicinchoninic acid (BCA) protein assay kit (Thermo Fisher Scientific Inc., MA, USA) and 30 μg (v/v) was electrophoresed by SDS-PAGE using a 10% (w/v) polyacrylamide resolving gel, electro-transferred to a PVDF membrane, and then blocked using 5% (w/v) non-fat milk. The membranes were incubated with primary antibodies (1:1000 dilution) at 4 °C overnight, followed by incubation with their respective secondary antibody for 1 h at room temperature. The antigen-antibody complexes were examined using the WestGlow^TM Chemiluminescent Substrate (Biomax Co., Ltd, Seoul, South Korea) under iBright™ CL1000 Imaging System (Thermo Fisher Scientific Inc., MA, USA). The densitometric analysis of protein signals were quantified using the Image J software (Version 1.52, National Institutes of Health, MD, USA).
# [4] = 1 mg/kg I.P. 1 h before E. coli K1 6 × 10^6 CFU/mouse I.P., 16 h, 5 mice/group
# [5] = 1 mg/kg I.P. pretreatment, septic mice, ELISA
# [6] = 1 mg/kg I.P. pretreatment, E. coli K1-infected mice = 100%
smiles,measurement,setting,value
CC[C@@H](C)[C@@H](NC(=O)[C@@H](C)NC(=O)[C@@H](CC(C)C)NC(=O)[C@@H](Cc1c[nH]c2ccccc12)NC(=O)[C@@H](CC(C)C)NC(=O)[C@@H](CCCNC(=N)N)NC(=O)[C@H](N)CCCNC(=N)N)C(=O)N[C@H](Cc1c[nH]c2ccccc12)C(=O)N[C@H](CCCNC(=N)N)C(=O)N[C@H](CCCNC(=N)N)C(N)=O [Pro10-1D] (H-[dR][dR][dL][dW][dL][dA][dI][dW][dR][dR]-NH2; N-terminus assumed),protease resistance (retention of bactericidal activity),chymotrypsin,substantial protease resistance
same,protease resistance (retention of bactericidal activity),chymotrypsin; listed as enantiomeric Pro10-1,retained its bactericidal activity
same,protease resistance (retention of bactericidal activity),trypsin,substantial protease resistance
same,protease resistance (retention of bactericidal activity),trypsin; listed as enantiomeric Pro10-1,retained its bactericidal activity
same,GM (geometric mean of MIC values of all bacterial strains),all bacterial strains,4.86 µM
same,inhibition of LPS-induced NO (nitrite) level,[1],effective inhibition
same,inhibition of LPS-induced TNF-α level,[2],effective inhibition
same,inhibition of LPS-induced IL-6 level,[3],effective inhibition
same,reduction of the number of bacteria in kidney,E. coli K1-infected mice; [4],~71%
same,reduction of the number of bacteria in liver,E. coli K1-infected mice; [4],~87%
same,reduction of the number of bacteria in lung,E. coli K1-infected mice; [4],approximately 73%
same,"lung pathological changes (PMN infiltration), H&E histology","E. coli K1-infected mice; 1 mg/kg I.P. pretreatment, E. coli K1-infected mice",effectively alleviated the pathological changes
same,suppression of IL-6 level in lung tissue,E. coli K1-infected mice; [5],62%
same,suppression of IL-6 level in serum,E. coli K1-infected mice; [5],56%
same,suppression of TNF-α level in lung tissue,E. coli K1-infected mice; [5],51%
same,suppression of TNF-α level in serum,E. coli K1-infected mice; [5],45%
same,reduction of serum endotoxin levels (LAL test),E. coli K1-infected mice; [6],over 33%
same,serum ALT level reduced to,E. coli K1-infected mice; [6],48%
same,serum AST level reduced to,E. coli K1-infected mice; [6],26%
same,serum BUN level reduced to,E. coli K1-infected mice; [6],37%
same,MAPK and NF-κB proteins,MAPK and NF-κB,downregulated
